Structures can show the parent of a compound that is named as a salt.
What follows are compounds tested against T1, human MAGL (His-hMAGL) (Homo sapiens, UniProt Q99685) (assay: Measurement of MAGL inhibitory activity by mass spectrometry). Conditions: MAGL inhibitory rate, test compound 10 μM, His-hMAGL, substrate 2-arachidonylglycerol, RapidFire-mass spectrometry.
T1 construct: made in house; host or cells: Escherichia coli BL21(DE3)
T1 sequence (Q99685 1-303): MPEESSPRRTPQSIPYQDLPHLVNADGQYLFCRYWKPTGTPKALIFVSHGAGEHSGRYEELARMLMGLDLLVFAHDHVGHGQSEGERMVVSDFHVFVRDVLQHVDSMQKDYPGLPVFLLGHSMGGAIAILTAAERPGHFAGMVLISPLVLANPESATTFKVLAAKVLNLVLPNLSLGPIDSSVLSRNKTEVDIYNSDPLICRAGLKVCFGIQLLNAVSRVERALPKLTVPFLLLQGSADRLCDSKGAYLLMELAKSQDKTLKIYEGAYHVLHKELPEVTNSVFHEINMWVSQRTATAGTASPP
Type: biochemical
Outline: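 His-tagged human MAGL was reacted with 150 μM 2-arachidonylglycerol substrate (stock, added by 5 μL) for 10 min at room temperature, then stopped with formic acid. Arachidonic acid product was quantified by RapidFire–triple-quadrupole MS in negative SRM mode, corrected by arachidonic acid-d8, and converted to percent inhibition.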

Compound | inhibition at 10 µM
O=C(c1nccs1)N1CCN([C@@H]2CC(=O)N(c3ccc4c(ccn4-c4ccc(C(F)(F)F)nn4)c3)C2)CC1 [Example 234, (4R)-4-(4-(1,3-thiazol-2-ylcarbonyl)piperazin-1-yl)-1-(1-(6-(trifluoromethyl)pyridazin-3-yl)-1H-indol-5-yl)pyrrolidin-2-one] | 98%
Cc1cc(-c2ccccc2)cc(N2CC(N3CCN(C(=O)c4nccs4)CC3)CC2=O)c1 (centres unmarked) [Example 240, 1-(5-methylbiphenyl-3-yl)-4-(4-(1,3-thiazol-2-ylcarbonyl)piperazin-1-yl)pyrrolidin-2-one] | 99%
O=C(c1nccs1)N1CCN(C2CC(=O)N(c3cc(-c4ccccc4)ccc3F)C2)CC1 (centres unmarked) [Example 241, 1-(4-fluorobiphenyl-3-yl)-4-(4-(1,3-thiazol-2-ylcarbonyl)piperazin-1-yl)pyrrolidin-2-one] | 96%
O=C(c1nccs1)N1CCN(C2CC(=O)N(c3cc(F)cc(-c4ccccc4)c3)C2)CC1 (centres unmarked) [Example 242, 1-(5-fluorobiphenyl-3-yl)-4-(4-(1,3-thiazol-2-ylcarbonyl)piperazin-1-yl)pyrrolidin-2-one] | 99%
O=C(c1nccs1)N1CCN(C2CC(=O)N(c3ccc(F)c(-c4ccccc4)c3)C2)CC1 (centres unmarked) [Example 243, 1-(6-fluorobiphenyl-3-yl)-4-(4-(1,3-thiazol-2-ylcarbonyl)piperazin-1-yl)pyrrolidin-2-one] | 100%
O=C(c1nccs1)N1CCN(C2CC(=O)N(c3cccc(-c4ccccc4)c3F)C2)CC1 (centres unmarked) [Example 244, 1-(2-fluorobiphenyl-3-yl)-4-(4-(1,3-thiazol-2-ylcarbonyl)piperazin-1-yl)pyrrolidin-2-one] | 98%
O=C(c1nccs1)N1CCN([C@@H]2CC(=O)N(c3ccc4c(ccn4-c4cnc(C(F)(F)F)cn4)c3)C2)CC1 [Example 245, (4R)-4-(4-(1,3-thiazol-2-ylcarbonyl)piperazin-1-yl)-1-(1-(5-(trifluoromethyl)pyrazin-2-yl)-1H-indol-5-yl)pyrrolidin-2-one] | 98%
Cc1ccc(-c2ccccc2)cc1N1CC(N2CCN(C(=O)c3nccs3)CC2)CC1=O (centres unmarked) [Example 247, 1-(4-methylbiphenyl-3-yl)-4-(4-(1,3-thiazol-2-ylcarbonyl)piperazin-1-yl)pyrrolidin-2-one] | 99%
Cc1ccc(N2CC(N3CCN(C(=O)c4nccs4)CC3)CC2=O)cc1-c1ccccc1 (centres unmarked) [Example 248, 1-(6-methylbiphenyl-3-yl)-4-(4-(1,3-thiazol-2-ylcarbonyl)piperazin-1-yl)pyrrolidin-2-one] | 103%
Cc1c(-c2ccccc2)cccc1N1CC(N2CCN(C(=O)c3nccs3)CC2)CC1=O (centres unmarked) [Example 249, 1-(2-methylbiphenyl-3-yl)-4-(4-(1,3-thiazol-2-ylcarbonyl)piperazin-1-yl)pyrrolidin-2-one] | 96%
O=C1CC(N2CCN(c3ncccn3)CC2)CN1c1cccc(I)c1 (centres unmarked) [Example 254, 1-(3-iodophenyl)-4-(4-(pyrimidin-2-yl)piperazin-1-yl)pyrrolidin-2-one] | 95%
Cc1ncccc1-c1cccc(N2CC(N3CCN(c4ncccn4)CC3)CC2=O)c1 (centres unmarked) [Example 256, 1-(3-(2-Methylpyridin-3-yl)phenyl)-4-(4-(pyrimidin-2-yl)piperazin-1-yl)pyrrolidin-2-one] | 102%
Cc1nc(C)c(-c2cccc(N3CC(N4CCN(C(=O)c5nccs5)CC4)CC3=O)c2)s1 (stereo not drawn) [Example 258, 1-(3-(2,4-dimethyl-1,3-thiazol-5-yl)phenyl)-4-(4-(1,3-thiazol-2-ylcarbonyl)piperazin-1-yl)pyrrolidin-2-one(optical isomer)] | 102%
O=C(c1nccs1)N1CCN(C2CN(c3ccc(Oc4ccccc4)cc3)C(=O)C2O)CC1 (centres unmarked) [Example 260, 3-Hydroxy-1-(4-phenoxyphenyl)-4-(4-(1,3-thiazol-2-ylcarbonyl)piperazin-1-yl)pyrrolidin-2-one] | 84%
O=C(c1nccs1)N1CCN(C2CN(c3ccc(Oc4ccccc4)cc3)C(=O)C2F)CC1 (centres unmarked) [Example 261, 3-Fluoro-1-(4-phenoxyphenyl)-4-(4-(1,3-thiazol-2-ylcarbonyl)piperazin-1-yl)pyrrolidin-2-one] | 100%
Cc1ccc(-c2ccc(N3CC(N4CCN(C(=O)c5nccs5)CC4)CC3=O)cc2)cn1 (centres unmarked) [Example 265, 1-(4-(6-methylpyridin-3-yl)phenyl)-4-(4-(1,3-thiazol-2-ylcarbonyl)piperazin-1-yl)pyrrolidin-2-one] | 97%
Cc1ccccc1-c1cccc(N2CC(N3CCN(c4ncccn4)CC3)CC2=O)c1 (centres unmarked) [Example 268, 1-(2′-methylbiphenyl-3-yl)-4-(4-(pyrimidin-2-yl)piperazin-1-yl)pyrrolidin-2-one] | 101%
O=C1CC(N2CCN(c3ncccn3)CC2)CN1c1cccc(-c2ccccc2Cl)c1 (centres unmarked) [Example 269, 1-(2′-chlorobiphenyl-3-yl)-4-(4-(pyrimidin-2-yl)piperazin-1-yl)pyrrolidin-2-one] | 101%
O=C(c1cscn1)N1CCN(C2CC(=O)N(c3ccc4c(ccn4-c4ccc(F)cc4)c3)C2)CC1 (centres unmarked) [Example 270, 1-(1-(4-fluorophenyl)-1H-indol-5-yl)-4-(4-(1,3-thiazol-4-ylcarbonyl)piperazin-1-yl)pyrrolidin-2-one] | 100%

Further lines, results first:

inhibition at 10 µM | Compound
100% | Cc1ccc(-n2ccc3cc(N4CC(N5CCN(C(=O)c6nccs6)CC5)CC4=O)ccc32)cc1 (centres unmarked) [Example 235, 1-(1-(4-methylphenyl)-1H-indol-5-yl)-4-(4-(1,3-thiazol-2-ylcarbonyl)piperazin-1-yl)pyrrolidin-2-one]
100% | Cc1cccc(-n2ccc3cc(N4CC(N5CCN(C(=O)c6nccs6)CC5)CC4=O)ccc32)n1 (centres unmarked) [Example 238, 1-(1-(6-methylpyridin-2-yl)-1H-indol-5-yl)-4-(4-(1,3-thiazol-2-ylcarbonyl)piperazin-1-yl)pyrrolidin-2-one]
100% | Cc1ccc(-n2ccc3cc(N4CC(N5CCN(C(=O)c6nccs6)CC5)CC4=O)ccc32)nc1 (centres unmarked) [Example 239, 1-(1-(5-methylpyridin-2-yl)-1H-indol-5-yl)-4-(4-(1,3-thiazol-2-ylcarbonyl)piperazin-1-yl)pyrrolidin-2-one]
98% | O=C(c1nccs1)N1CCN([C@@H]2CC(=O)N(c3ccc4c(ccn4-c4ccnc(C(F)(F)F)c4)c3)C2)CC1 [Example 246, (4R)-4-(4-(1,3-thiazol-2-ylcarbonyl)piperazin-1-yl)-1-(1-(2-(trifluoromethyl)pyridin-4-yl)-1H-indol-5-yl)pyrrolidin-2-one]
101% | O=C(c1nccs1)N1CCN(C2CC(=O)N(c3ccc4c(ccn4-c4ccccc4)c3)C2)CC1 (centres unmarked) [Example 250, 1-(1-phenyl-1H-indol-5-yl)-4-(4-(1,3-thiazol-2-ylcarbonyl)piperazin-1-yl)pyrrolidin-2-one]
102% | Cc1cccc(-n2ccc3cc(N4CC(N5CCN(C(=O)c6nccs6)CC5)CC4=O)ccc32)c1 (centres unmarked) [Example 251, 1-(1-(3-methylphenyl)-1H-indol-5-yl)-4-(4-(1,3-thiazol-2-ylcarbonyl)piperazin-1-yl)pyrrolidin-2-one]
103% | Cc1ccnc(-n2ccc3cc(N4CC(N5CCN(C(=O)c6nccs6)CC5)CC4=O)ccc32)c1 (centres unmarked) [Example 252, 1-(1-(4-methylpyridin-2-yl)-1H-indol-5-yl)-4-(4-(1,3-thiazol-2-ylcarbonyl)piperazin-1-yl)pyrrolidin-2-one]
101% | Cc1ccccc1-n1ccc2cc(N3CC(N4CCN(C(=O)c5nccs5)CC4)CC3=O)ccc21 (centres unmarked) [Example 253, 1-(1-(2-methylphenyl)-1H-indol-5-yl)-4-(4-(1,3-thiazol-2-ylcarbonyl)piperazin-1-yl)pyrrolidin-2-one]
101% | Cc1cc(-n2ccc3cc(N4CC(N5CCN(C(=O)c6nccs6)CC5)CC4=O)ccc32)ccn1 (centres unmarked) [Example 255, 1-(1-(2-methylpyridin-4-yl)-1H-indol-5-yl)-4-(4-(1,3-thiazol-2-ylcarbonyl)piperazin-1-yl)pyrrolidin-2-one]
99% | O=C(c1nccs1)N1CCN([C@@H]2CC(=O)N(c3ccc4c(ccn4-c4ncc(C(F)(F)F)cn4)c3)C2)CC1 [Example 257, (4R)-4-(4-(1,3-Thiazol-2-ylcarbonyl)piperazin-1-yl)-1-(1-(5-(trifluoromethyl)pyrimidin-2-yl)-1H-indol-5-yl)pyrrolidin-2-one hydrochloride]
92% | Cc1cc(-c2ccc(N3CC(N4CCN(C(=O)c5nccs5)CC4)CC3=O)cc2)ccn1 (centres unmarked) [Example 264, 1-(4-(2-methylpyridin-4-yl)phenyl)-4-(4-(1,3-thiazol-2-ylcarbonyl)piperazin-1-yl)pyrrolidin-2-one]

Same assay, conditions: MAGL inhibitory rate, test compound 10 μM, His-hMAGL, substrate 2-arachidonylglycerol, RapidFire-mass spectrometry; 10 µM

Compound | % inhibition at 10 μM
O=C(c1nccs1)N1CCN(C2CC(=O)N(c3cccc(-c4cccnc4Cl)c3)C2)CC1 (stereo not drawn) [Example 266, 1-(3-(2-chloropyridin-3-yl)phenyl)-4-(4-(1,3-thiazol-2-ylcarbonyl)piperazin-1-yl)pyrrolidin-2-one(optical isomer)] | 99%
O=C1Cc2ccc(-c3cccc(N4CC(N5CCN(C(=O)c6nccs6)CC5)CC4=O)c3)cc2N1 (stereo not drawn) [Example 267, 6-(3-(2-oxo-4-(4-(1,3-thiazol-2-ylcarbonyl)piperazin-1-yl)pyrrolidin-1-yl)phenyl)-1,3-dihydro-2H-indol-2-one(optical isomer)] | 102%
